How the values were obtained:
[1] = human clinical oncology studies; cited from earlier work
rat = conditions: administered intraperitoneally; cited from earlier work
human cells = conditions: cited from earlier work
rats [2] = assay: toxic effects in rats when administered via the oral route; assay type: in vivo
Source text: As mentioned above, rats are particularly troublesome vermin. […] For example, Tretazicar is particularly toxic towards rats compared to other rodents. […] This feature is believed to help prevent bait-shyness.

mouse = conditions: cited from earlier work
Walker tumour = conditions: specific rat tumour ('Walker tumour'); cited from earlier work
[3] = dogs, packed into a gelatin capsule; cited from earlier work
variety of other tumours = conditions: cited from earlier work
rats [4] = conditions: cited from earlier work

Compound: NC(=O)c1cc(N2CC2)c([N+](=O)[O-])cc1[N+](=O)[O-] [Tretazicar, 5-(aziridin-1-yl)-2,4-dinitrobenzarnide]
- therapeutic benefit [1]: no therapeutic benefit
- LD50 (rat): 28 mg/kg
- sensitivity of cells to the effects of the compound (human cells): insensitive
- onset of toxic effects (rats [2]): delayed
- LD50 (mouse): 220 mg/kg
- effect on Walker tumour (Walker tumour): capable of eradicating
- oral bioavailability [3]: about 40%
- effect on other tumours (variety of other tumours): little or no effect
- toxicity (rats [4]): toxic to rats
